Data reported in ChEMBL document CHEMBL5665443, “Enzyme Inhibitor Single Concentration assay results for EUbOPEN Chemogenomics Library” (2024).

How the values were obtained:
[1] = biological target: Methyl-CpG-binding domain protein 4 (Homo sapiens) (UniProt O95243); settings: Hit No;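 also: MBD4 activity read as fluorescence at 594 nm from cleavage and release of a quenched duplex DNA oligonucleotide, with APE1 coupled to incise the strand and raise turnover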
Description: Inhibition of MBD4 by quantifying inhibition of MBD4-mediated cleavage and dissociation of quenched duplex DNA oligonucleotides, measured as fluorescence at 594 nm. To generate a functional strand incision and increase turn-over this assay is coupled to APE1.

[2] = biological target: T1, Endonuclease 8-like 2 (Homo sapiens) (UniProt Q969S2); settings: Hit No;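 also: fluorescence at 594 nm reports NEIL2 cutting and release of a quenched double-stranded DNA oligo substrate, reduced signal read as inhibition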
T1 sequence (whole entry): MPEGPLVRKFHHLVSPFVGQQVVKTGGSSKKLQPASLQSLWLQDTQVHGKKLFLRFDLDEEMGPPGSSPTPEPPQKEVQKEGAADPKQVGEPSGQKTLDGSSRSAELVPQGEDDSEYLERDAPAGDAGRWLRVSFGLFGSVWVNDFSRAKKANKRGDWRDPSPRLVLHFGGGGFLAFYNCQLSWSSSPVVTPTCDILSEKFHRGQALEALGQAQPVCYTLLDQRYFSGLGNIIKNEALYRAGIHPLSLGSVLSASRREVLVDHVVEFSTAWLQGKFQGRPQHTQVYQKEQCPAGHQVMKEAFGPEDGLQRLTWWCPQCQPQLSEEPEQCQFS
Description: Inhibition of NEIL2 by quantifying inhibition of NEIL2-mediated cleavage and dissociation of quenched duplex DNA oligonucleotides, measured as fluorescence at 594 nm.

[3] = biological target: Endonuclease 8-like 1 (Homo sapiens) (UniProt Q96FI4); settings: Hit No;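 also: fluorescence at 594 nm from quenched duplex DNA oligonucleotides released by NEIL1 cleavage and strand separation, reported as reduction of this enzyme activity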
Description: Inhibition of NEIL1 by quantifying inhibition of NEIL1-mediated cleavage and dissociation of quenched duplex DNA oligonucleotides, measured as fluorescence at 594 nm.

[4] = biological target: Uracil-DNA glycosylase (Homo sapiens) (UniProt P13051); settings: Hit No;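 also: UNG excision on a quenched double-stranded DNA oligo probe, with APE1 added for strand incision and turnover, read as fluorescence at 594 nm as strands separate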
Description: Inhibition of UNG by quantifying inhibition of UNG-mediated cleavage and dissociation of quenched duplex DNA oligonucleotides, measured as fluorescence at 594 nm. To generate a functional strand incision and increase turn-over this assay is coupled to APE1.

[5] = biological target: G/T mismatch-specific thymine DNA glycosylase (Homo sapiens) (UniProt Q13569); settings: Hit No;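 also: human TDG cleavage of quenched duplex DNA oligonucleotides coupled to APE1, strand release read as fluorescence at 594 nm, inhibition of TDG activity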
Description: Inhibition of TDG by quantifying inhibition of TDG-mediated cleavage and dissociation of quenched duplex DNA oligonucleotides, measured as fluorescence at 594 nm. To generate a functional strand incision and increase turn-over this assay is coupled to APE1.

[6] = biological target: N-glycosylase/DNA lyase (Homo sapiens) (UniProt O15527);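 also: OGG1 cleavage of a quenched duplex DNA oligonucleotide, coupled to APE1 for strand incision, read as fluorescence at 594 nm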
Description: Inhibition of OGG1 by quantifying inhibition of OGG1-mediated cleavage and dissociation of quenched duplex DNA oligonucleotides, measured as fluorescence at 594 nm. To generate a functional strand incision and increase turn-over this assay is coupled to APE1.

[7] = biological target: T2, Single-strand selective monofunctional uracil DNA glycosylase (Homo sapiens) (UniProt Q53HV7); settings: Hit No;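 also: enzymatic SMUG1 assay coupled with APE1, reading fluorescence at 594 nm released when a quenched double-stranded DNA oligonucleotide substrate is cleaved and separated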
T2 sequence (whole entry): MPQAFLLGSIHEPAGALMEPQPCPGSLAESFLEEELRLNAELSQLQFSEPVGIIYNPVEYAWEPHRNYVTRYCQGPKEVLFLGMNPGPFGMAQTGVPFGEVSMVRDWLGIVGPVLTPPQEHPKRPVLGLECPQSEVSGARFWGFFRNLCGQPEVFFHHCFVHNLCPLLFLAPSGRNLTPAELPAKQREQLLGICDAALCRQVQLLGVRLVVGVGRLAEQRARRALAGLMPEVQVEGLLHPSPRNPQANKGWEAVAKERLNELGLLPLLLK
Description: Inhibition of SMUG1 by quantifying inhibition of SMUG1-mediated cleavage and dissociation of quenched duplex DNA oligonucleotides, measured as fluorescence at 594 nm. To generate a functional strand incision and increase turn-over this assay is coupled to APE1.

[8] = biological target: T3, Adenine DNA glycosylase (Homo sapiens) (UniProt Q9UIF7); settings: Hit No;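 also: human MUTYH activity read as 594 nm fluorescence from cleavage and release of a quenched DNA duplex, coupled with APE1 for strand incision, lower signal meaning inhibition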
T3 sequence (whole entry): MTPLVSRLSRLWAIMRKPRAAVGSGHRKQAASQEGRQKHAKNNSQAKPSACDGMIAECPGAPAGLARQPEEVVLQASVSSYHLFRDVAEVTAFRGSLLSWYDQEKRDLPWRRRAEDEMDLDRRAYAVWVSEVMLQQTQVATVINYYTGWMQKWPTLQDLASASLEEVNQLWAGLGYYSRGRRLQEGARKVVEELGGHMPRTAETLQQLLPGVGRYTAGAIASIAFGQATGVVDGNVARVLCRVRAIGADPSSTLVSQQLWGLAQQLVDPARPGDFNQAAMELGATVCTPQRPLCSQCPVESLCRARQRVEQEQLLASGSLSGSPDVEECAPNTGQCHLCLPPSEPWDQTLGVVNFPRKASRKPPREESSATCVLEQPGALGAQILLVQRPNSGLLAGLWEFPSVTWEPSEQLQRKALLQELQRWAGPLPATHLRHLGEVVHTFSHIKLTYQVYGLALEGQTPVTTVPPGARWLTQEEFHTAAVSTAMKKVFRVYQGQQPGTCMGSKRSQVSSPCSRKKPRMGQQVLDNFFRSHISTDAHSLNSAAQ
Description: Inhibition of MUTYH by quantifying inhibition of MUTYH-mediated cleavage and dissociation of quenched duplex DNA oligonucleotides, measured as fluorescence at 594 nm. To generate a functional strand incision and increase turn-over this assay is coupled to APE1.

[9] = biological target: T4, Endonuclease III-like protein 1 (Homo sapiens) (UniProt P78549); settings: Hit No;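 also: enzyme assay tracking NTHL1 cutting and release of a quenched double-stranded DNA oligo substrate, read as fluorescence at 594 nm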
T4 sequence (whole entry): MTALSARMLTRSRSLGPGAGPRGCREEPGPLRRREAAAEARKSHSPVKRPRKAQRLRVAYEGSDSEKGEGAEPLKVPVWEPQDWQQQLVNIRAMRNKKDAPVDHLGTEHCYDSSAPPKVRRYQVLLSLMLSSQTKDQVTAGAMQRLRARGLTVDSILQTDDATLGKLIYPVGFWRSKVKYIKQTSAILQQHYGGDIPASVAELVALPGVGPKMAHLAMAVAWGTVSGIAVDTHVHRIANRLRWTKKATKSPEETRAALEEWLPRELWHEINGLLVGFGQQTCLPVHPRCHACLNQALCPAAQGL
Description: Inhibition of NTHL1 by quantifying inhibition of NTHL1-mediated cleavage and dissociation of quenched duplex DNA oligonucleotides, measured as fluorescence at 594 nm.

[10] = Compound Concentration 10.0 uM, Hit No
[11] = Compound Concentration 1.0 uM, Hit No

Sequence of Endonuclease 8-like 1 (Homo sapiens) (Q96FI4 whole entry): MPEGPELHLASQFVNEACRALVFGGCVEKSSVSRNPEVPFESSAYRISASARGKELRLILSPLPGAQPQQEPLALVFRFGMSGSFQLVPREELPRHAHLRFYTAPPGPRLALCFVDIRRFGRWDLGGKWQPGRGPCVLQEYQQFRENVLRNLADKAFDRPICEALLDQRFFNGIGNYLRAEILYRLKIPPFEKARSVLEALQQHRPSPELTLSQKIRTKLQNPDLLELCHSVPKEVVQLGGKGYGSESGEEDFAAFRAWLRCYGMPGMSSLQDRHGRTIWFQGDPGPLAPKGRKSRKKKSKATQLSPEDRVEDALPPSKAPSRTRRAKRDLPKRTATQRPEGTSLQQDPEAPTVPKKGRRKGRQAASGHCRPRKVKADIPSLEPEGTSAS
Sequence of Methyl-CpG-binding domain protein 4 (Homo sapiens) (O95243 whole entry, the tested form may be a part): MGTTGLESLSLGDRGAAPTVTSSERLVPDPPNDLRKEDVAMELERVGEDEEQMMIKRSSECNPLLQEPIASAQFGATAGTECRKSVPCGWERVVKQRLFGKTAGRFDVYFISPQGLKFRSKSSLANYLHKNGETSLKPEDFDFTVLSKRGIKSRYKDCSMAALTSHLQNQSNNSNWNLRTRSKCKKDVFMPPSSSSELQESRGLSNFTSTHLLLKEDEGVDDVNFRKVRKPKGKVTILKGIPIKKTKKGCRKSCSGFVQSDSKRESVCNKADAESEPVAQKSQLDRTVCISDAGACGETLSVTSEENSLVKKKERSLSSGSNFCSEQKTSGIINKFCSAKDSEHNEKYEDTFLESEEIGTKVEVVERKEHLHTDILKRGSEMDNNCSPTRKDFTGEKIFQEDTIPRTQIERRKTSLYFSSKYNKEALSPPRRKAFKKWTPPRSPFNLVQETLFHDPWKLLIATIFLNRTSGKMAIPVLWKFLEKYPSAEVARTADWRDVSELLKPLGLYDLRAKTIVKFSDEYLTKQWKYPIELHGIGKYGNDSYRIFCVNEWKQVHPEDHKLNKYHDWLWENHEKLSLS
Sequence of Uracil-DNA glycosylase (Homo sapiens) (P13051 whole entry): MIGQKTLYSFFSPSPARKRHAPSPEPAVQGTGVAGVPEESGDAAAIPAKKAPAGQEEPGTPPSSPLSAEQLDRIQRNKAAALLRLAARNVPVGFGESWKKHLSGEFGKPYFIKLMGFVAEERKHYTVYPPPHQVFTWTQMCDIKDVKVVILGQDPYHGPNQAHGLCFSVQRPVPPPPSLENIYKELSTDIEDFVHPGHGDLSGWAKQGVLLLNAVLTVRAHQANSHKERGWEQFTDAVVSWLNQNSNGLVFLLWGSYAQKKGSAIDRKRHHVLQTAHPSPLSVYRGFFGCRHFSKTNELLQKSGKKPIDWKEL
Sequence of N-glycosylase/DNA lyase (Homo sapiens) (O15527 whole entry): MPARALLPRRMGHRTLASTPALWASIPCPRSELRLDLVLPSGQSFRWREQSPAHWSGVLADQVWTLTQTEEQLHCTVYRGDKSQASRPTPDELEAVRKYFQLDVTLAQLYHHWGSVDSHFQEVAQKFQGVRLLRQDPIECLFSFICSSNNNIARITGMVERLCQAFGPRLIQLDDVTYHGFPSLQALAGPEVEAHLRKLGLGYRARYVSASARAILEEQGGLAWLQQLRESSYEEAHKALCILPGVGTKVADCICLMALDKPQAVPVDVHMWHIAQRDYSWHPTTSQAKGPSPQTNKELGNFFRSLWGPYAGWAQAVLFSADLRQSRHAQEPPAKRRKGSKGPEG
Sequence of G/T mismatch-specific thymine DNA glycosylase (Homo sapiens) (Q13569 whole entry): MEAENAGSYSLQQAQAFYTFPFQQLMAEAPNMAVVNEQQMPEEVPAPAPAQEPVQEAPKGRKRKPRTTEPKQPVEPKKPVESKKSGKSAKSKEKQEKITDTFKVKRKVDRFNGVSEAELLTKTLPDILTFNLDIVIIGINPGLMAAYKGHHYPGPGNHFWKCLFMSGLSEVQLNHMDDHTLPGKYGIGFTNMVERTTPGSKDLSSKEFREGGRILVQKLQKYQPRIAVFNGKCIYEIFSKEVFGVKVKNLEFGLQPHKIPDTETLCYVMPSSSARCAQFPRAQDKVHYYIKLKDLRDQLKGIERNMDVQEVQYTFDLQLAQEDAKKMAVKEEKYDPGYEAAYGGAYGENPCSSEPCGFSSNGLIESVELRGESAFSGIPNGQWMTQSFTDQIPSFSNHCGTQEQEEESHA

Row | SMILES | inhibition ([1]; Compound Concentration 1.0 uM) [%] | inhibition ([1]; Compound Concentration 10.0 uM) [%] | inhibition ([2]; Compound Concentration 10.0 uM) [%] | inhibition ([3]; Compound Concentration 1.0 uM) [%] | inhibition ([3]; Compound Concentration 10.0 uM) [%] | inhibition ([4]; Compound Concentration 1.0 uM) [%] | inhibition ([4]; Compound Concentration 10.0 uM) [%] | inhibition ([5]; Compound Concentration 1.0 uM) [%] | inhibition ([5]; Compound Concentration 10.0 uM) [%] | inhibition [6, 10] [%] | inhibition ([7]; Compound Concentration 1.0 uM) [%] | inhibition ([7]; Compound Concentration 10.0 uM) [%] | inhibition ([8]; Compound Concentration 10.0 uM) [%] | inhibition ([9]; Compound Concentration 1.0 uM) [%] | inhibition ([2]; Compound Concentration 1.0 uM) [%] | inhibition [6, 11] [%] | inhibition ([8]; Compound Concentration 1.0 uM) [%] | inhibition ([9]; Compound Concentration 10.0 uM) [%] | inhibition ([6]; Compound Concentration 10.0 uM, Hit Yes) [%]
1 | COc1ccccc1Nc1nc(-c2nn(Cc3c(F)cc(OCCCO)cc3F)c3ccccc23)ncc1OC | 54.1 | 57 | 3.85 | -4.09 | -6.35 | 0.477 | 2.87 | 39 | 97.1 | 4.46 | 10.9 | 13 | -2.18 | -4.79 |  |  |  |  | 
2 | OCCn1cc(-c2ccc3c(c2)CCC3=NO)c(-c2ccncc2)n1 | 48.6 |  |  | 0.138 |  | 2.27 |  | 25.9 |  |  | 16.9 |  |  | 1.48 | -7.84 | 1.67 | -3.03 |  | 
3 | Cc1cc(OCCC(C)(C)O)cc(C)c1-c1ccc(F)c2c1CC[C@H]2Oc1ccc2c(c1)OC[C@H]2CC(=O)O |  | 64.2 | -1.76 |  | -2.26 |  | 1.96 |  | 61.7 | 78.7 |  | 18.5 | 10 |  |  |  |  | -4.57 | 
4 | Cc1cccc(-c2cnc3occ(-c4ccc(C(=O)O)c(C5CCCC5)c4)c3c2)c1 |  | 33 | -2.46 |  | 6.08 |  | -0.203 |  | 36.3 | 66.5 |  | 18.9 | 15.7 |  |  |  |  | 4.27 | 
5 | O=C(O)c1cc(F)c2nc(N3[C@@H]4CC[C@H]3C[C@@H](OCc3c(-c5ccccc5OC(F)(F)F)noc3C3CC3)C4)sc2c1 |  | 61.7 | -1.76 |  | -9.38 |  | 4.52 |  | 99.3 | 67.8 |  | 17.7 | 11.9 |  |  |  |  | 10.6 | 
6 | O=C(NCCCN1CCOC1=O)c1cnc(NCc2cc(Br)ccc2Br)nc1NC1CCCC1 |  | -6.01 | 8.58 |  | 5.29 |  | 4.06 |  | 48.3 | 2.35 |  | 15.1 | 8.44 |  |  |  |  | -4.1 | 
7 | COc1cc(-c2cn[nH]c2)ccc1C(=O)Nc1ccc2c(c1)CCNCC2 |  | 13.6 | 3.2 |  | -5.41 |  | 2.84 |  | 37.4 | 2.14 |  | 20.2 | -0.48 |  |  |  |  | -8.28 | 
8 | CC(=O)Nc1nc(CN2CCC[C@H](Cc3cc(C)nc(C)c3)C2)cs1 |  | 81.4 | 3.85 |  | 1.68 |  | 7.98 |  | 45.8 | 13.6 |  | 19 | 17.8 |  |  |  |  | 9.23 | 
9 | CN(C)c1ncc2cc(-c3ccc(-c4ncccc4F)cc3Cl)c(=O)n(C[C@H]3OC[C@H](N)CO3)c2n1 |  | -0.894 | 1.58 |  | 2.65 |  | 6.12 |  | 41.3 | -0.214 |  | 26.9 | 13.7 |  |  |  |  | -1.31 | 
10 | O=C(O)C1CN(Cc2ccc(OCc3ccc(Cl)c(Cl)c3)cc2)C1 |  | 25 | -3.23 |  | 5.13 |  | -2.44 |  | 18.1 | -0.266 |  | 12.8 | 19.2 |  |  |  |  | 10.7 | 
11 | CN(CCOc1ccc(C[C@H](Nc2ccccc2C(=O)c2ccccc2)C(=O)O)cc1)c1ccccn1 |  | 67 | 4.36 |  | 5.16 |  | -0.00636 |  | 30.8 | 24.7 |  | 8.44 | -3.55 |  |  |  |  | -4.57 | 
12 | CNC(=O)c1ccc(Nc2ncc(C(F)(F)F)c(NCc3nccnc3N(C)S(C)(=O)=O)n2)cc1 | 13.6 | 16.6 | -7.12 | 3.44 | 2.28 | -2.6 | 3.52 | 43.6 | 100 | 4.66 | 10.4 | 23.4 | 9.35 |  | -4.88 | -7.84 |  | -7.86 | 
13 | CN(C)CC#Cc1ccc2[nH]c3c(c2c1)-c1nc(N)ncc1CCC3 | 3.44 |  |  | 2.65 |  | 3.22 |  | 46.8 |  |  | 11.2 |  |  | 10.6 | 4.81 | 3.18 | 1.71 |  | 
14 | CC(C)(O)CNc1ncc(-c2ccnc(Nc3ccnc(Cl)c3)n2)c(CC2CC2)n1 |  | -8.47 | -9.73 |  | -7.52 |  | -2.03 |  | 44.6 | -4.97 |  | 21.2 | 0.0658 |  |  |  |  | 5.67 | 
15 | O=C(O)Cc1cccc(OCCCN(Cc2cccc(C(F)(F)F)c2Cl)CC(c2ccccc2)c2ccccc2)c1 |  | 61.5 | 5.89 |  | -4.83 |  | 8.18 |  | 54 |  |  | 33.2 | 2.57 |  |  |  |  | 2 | 106
16 | CCc1ccccc1C(=O)Nc1n[nH]c2c(C)c(F)c(C3C(C#N)=C(C)N(C)C(C)=C3C#N)cc12 | 55 | 44.9 | 5.63 | 0.0055 | -6.65 | 1.06 | 9.1 | 36.9 | 43.7 | 11.1 | 13.1 | 29.9 | 2.35 | 13.3 |  |  | 6.2 | -1.95 | 
17 | CC1(C)C(=O)C(C)(C)c2cc(C(=O)Nc3ccc(C(=O)O)cc3)ccc21 |  | 49.5 | -2.53 |  | -2.26 |  | -1.52 |  | 47.5 | 9.87 |  | 5.8 | -4.47 |  |  |  |  | -7.2 | 
18 | O=C1c2ccc(Nc3ccc(F)cc3F)cc2CCc2ccc(OC[C@H](O)CO)cc21 |  | 32.4 | 4.92 |  | -0.672 |  | 8.79 |  | 39.4 | -9.94 |  | 11.5 | -4.85 |  |  |  |  | 0.775 | 
19 | CS(=O)(=O)N1CCCC(NC(=O)[C@H](CCC2CCCCC2)NC(=O)c2ccc(CNC(=O)c3cnc4ccccn34)cc2)C1 (some centres undefined) | 27.9 |  |  | -0.0491 |  | 0.321 |  | 41.5 |  |  | 10.6 |  |  | 7.17 | -2.03 | -1.52 | -1.13 |  | 
20 | O=C(NNS(=O)(=O)c1ccccc1F)c1cc(F)cc(-c2ccccn2)c1 |  | 80.8 | 3.34 |  | 0.316 |  | 6.14 |  | 49.9 | 3.57 |  | 15.4 | 3.72 |  |  |  |  | 11.9 | 
